Measured values reported in US20210045385A1, “PYRIDAZINONE-SUBSTITUTED KETOXIMES AS HERBICIDES” (FMC Corporation, priority 2018, published 2021).

Tests used:
Type in all cases: in vivo
kochia (Kochia scoparia) [1] = test: Test A preemergence, visual plant response rating; conditions: approx. 10 days
Text: (§1) Seeds of plant species selected from barnyardgrass (Echinochloa crus-galli), kochia (Kochia scoparia), ragweed (common ragweed, Ambrosia elatior), Italian ryegrass (Lolium multiflorum), foxtail, giant (giant foxtail, Setaria faberii), foxtail, green (green foxtail, Setaria viridis), and pigweed (Amaranthus retroflexus) were planted into a blend of loam soil and sand and treated preemergence with a directed soil spray using test chemicals formulated in a non-phytotoxic solvent mixture which included a surfactant.
(§2) At the same time, plants selected from these weed species and also wheat (Triticum aestivum), corn (Zea mays), blackgrass (Alopecurus myosuroides), and galium (catchweed bedstraw, Galium aparine) were planted in pots containing the same blend of loam soil and sand and treated with postemergence applications of test chemicals formulated in the same manner. Plants ranged in height from 2 to 10 cm and were in the one- to two-leaf stage for the postemergence treatment. Treated plants and untreated controls were maintained in a greenhouse for approximately 10 days, after which time all treated plants were compared to untreated controls and visually evaluated for injury. Plant response ratings, summarized in Table A, are based on a 0 to 100 scale where 0 is no effect and 100 is complete control. A dash (-) response means no test result.

[2] = tested on: barnyardgrass (Echinochloa crus-galli); test: Test A preemergence, visual plant response rating; conditions: approx. 10 days
Text: as §1, §2

[3] = tested on: pigweed (Amaranthus retroflexus); test: Test A preemergence, visual plant response rating; conditions: approx. 10 days
Text: as §1, §2

[4] = tested on: foxtail, giant (giant foxtail, Setaria faberii); test: Test A preemergence, visual plant response rating; conditions: approx. 10 days
Text: as §1, §2

[5] = tested on: ragweed (common ragweed, Ambrosia elatior); test: Test A preemergence, visual plant response rating; conditions: approx. 10 days
Text: as §1, §2

[6] = tested on: Italian ryegrass (Lolium multiflorum); test: Test A preemergence, visual plant response rating; conditions: approx. 10 days
Text: as §1, §2

corn (Zea mays) = test: Test A postemergence, visual plant response rating; conditions: for Corn plant response rating (0 to 100 scale): 500 g ai/ha, postemergence, 0 is no effect, 100 is complete control; for Corn plant response rating: Postemergence, 125 g ai/ha, 0 to 100 scale (0 no effect, 100 complete control)
Text: as §1, §2

kochia (Kochia scoparia) [7] = test: Test A postemergence, visual plant response rating; conditions: for Kochia plant response rating (0 to 100 scale): 500 g ai/ha, postemergence, 0 is no effect, 100 is complete control; for Kochia plant response rating: Postemergence, 125 g ai/ha, 0 to 100 scale (0 no effect, 100 complete control)
Text: as §1, §2

[8] = tested on: blackgrass (Alopecurus myosuroides); test: Test A postemergence, visual plant response rating; conditions: for Blackgrass plant response rating (0 to 100 scale): 500 g ai/ha, postemergence, 0 is no effect, 100 is complete control; for Blackgrass plant response rating: Postemergence, 125 g ai/ha, 0 to 100 scale (0 no effect, 100 complete control)
Text: as §1, §2

[9] = tested on: barnyardgrass (Echinochloa crus-galli); test: Test A postemergence, visual plant response rating; conditions: for Barnyardgrass plant response rating (0 to 100 scale): 500 g ai/ha, postemergence, 0 is no effect, 100 is complete control; for Barnyardgrass plant response rating: Postemergence, 125 g ai/ha, 0 to 100 scale (0 no effect, 100 complete control)
Text: as §1, §2

[10] = tested on: pigweed (Amaranthus retroflexus); test: Test A postemergence, visual plant response rating; conditions: for Pigweed plant response rating (0 to 100 scale): 500 g ai/ha, postemergence, 0 is no effect, 100 is complete control; for Pigweed plant response rating: Postemergence, 125 g ai/ha, 0 to 100 scale (0 no effect, 100 complete control)
Text: as §1, §2

[11] = tested on: wheat (Triticum aestivum); test: Test A postemergence, visual plant response rating; conditions: for Wheat plant response rating (0 to 100 scale): 500 g ai/ha, postemergence, 0 is no effect, 100 is complete control; for Wheat plant response rating: Postemergence, 125 g ai/ha, 0 to 100 scale (0 no effect, 100 complete control)
Text: as §1, §2

[12] = tested on: galium (catchweed bedstraw, Galium aparine); test: Test A postemergence, visual plant response rating; conditions: for Galium plant response rating (0 to 100 scale): 500 g ai/ha, postemergence, 0 is no effect, 100 is complete control; for Galium plant response rating: Postemergence, 125 g ai/ha, 0 to 100 scale (0 no effect, 100 complete control)
Text: as §1, §2

[13] = tested on: foxtail, giant (giant foxtail, Setaria faberii); test: Test A postemergence, visual plant response rating; conditions: for Foxtail, Giant plant response rating (0 to 100 scale): 500 g ai/ha, postemergence, 0 is no effect, 100 is complete control; for Foxtail, Giant plant response rating: Postemergence, 125 g ai/ha, 0 to 100 scale (0 no effect, 100 complete control)
Text: as §1, §2

[14] = tested on: ragweed (common ragweed, Ambrosia elatior); test: Test A postemergence, visual plant response rating; conditions: for Ragweed plant response rating (0 to 100 scale): 500 g ai/ha, postemergence, 0 is no effect, 100 is complete control; for Ragweed plant response rating: Postemergence, 125 g ai/ha, 0 to 100 scale (0 no effect, 100 complete control)
Text: as §1, §2

[15] = tested on: Italian ryegrass (Lolium multiflorum); test: Test A postemergence, visual plant response rating; conditions: for Ryegrass, Italian plant response rating (0 to 100 scale): 500 g ai/ha, postemergence, 0 is no effect, 100 is complete control; for Ryegrass, Italian plant response rating: Postemergence, 125 g ai/ha, 0 to 100 scale (0 no effect, 100 complete control)
Text: as §1, §2

[16] = tested on: barnyardgrass (Echinochloa crus-galli); test: Test B flooded paddy test, visual plant response rating; conditions: 250 g ai/ha, Flood, applied to paddy water, 2-leaf stage, evaluated after 13 to 15 days
Protocol: (§3) Plant species in the flooded paddy test selected from rice (Oryza sativa), sedge, umbrella (small-flower umbrella sedge, Cyperus difformis), ducksalad (Heteranhera limosa), and barnyardgrass (Echinochloa crus-galli) were grown to the 2-leaf stage for testing. At time of treatment, test pots were flooded to 3 cm above the soil surface treated by application of test compounds directly to the paddy water, and then maintained at that water depth for the duration of the test. Treated plants and controls were maintained in a greenhouse for 13 to 15 days, after which time all species were compared to controls and visually evaluated. […] A dash (-) response means no test result.

[17] = tested on: sedge, umbrella (small-flower umbrella sedge, Cyperus difformis); test: as above; conditions: 250 g ai/ha, Flood, applied to paddy water, 2-leaf stage, evaluated after 13 to 15 days
Protocol: as §3

rice (Oryza sativa) = test: as above; conditions: 250 g ai/ha, Flood, applied to paddy water, 2-leaf stage, evaluated after 13 to 15 days
Protocol: as §3

[18] = tested on: ducksalad (Heteranhera limosa); test: as above; conditions: 250 g ai/ha, Flood, applied to paddy water, 2-leaf stage, evaluated after 13 to 15 days
Protocol: as §3

Structure (SMILES)	Kochia plant response rating (0 to 100 scale) (kochia (Kochia scoparia) [1]; 125 g ai/ha Preemergence)	Kochia plant response rating (0 to 100 scale) (kochia (Kochia scoparia) [1]; 500 g ai/ha Preemergence)	Barnyardgrass plant response rating (0 to 100 scale) ([2]; 125 g ai/ha Preemergence)	Barnyardgrass plant response rating (0 to 100 scale) ([2]; 500 g ai/ha Preemergence)	Pigweed plant response rating (0 to 100 scale) ([3]; 125 g ai/ha Preemergence)	Pigweed plant response rating (0 to 100 scale) ([3]; 500 g ai/ha Preemergence)	Foxtail, Giant plant response rating (0 to 100 scale) ([4]; 125 g ai/ha Preemergence)	Foxtail, Giant plant response rating (0 to 100 scale) ([4]; 500 g ai/ha Preemergence)	Ragweed plant response rating (0 to 100 scale) ([5]; 125 g ai/ha Preemergence)	Ragweed plant response rating (0 to 100 scale) ([5]; 500 g ai/ha Preemergence)	Ryegrass, Italian plant response rating (0 to 100 scale) ([6]; 125 g ai/ha Preemergence)	Ryegrass, Italian plant response rating (0 to 100 scale) ([6]; 500 g ai/ha Preemergence)	Corn plant response rating (0 to 100 scale) (corn (Zea mays))	Corn plant response rating (corn (Zea mays))	Kochia plant response rating (0 to 100 scale) (kochia (Kochia scoparia) [7])	Kochia plant response rating (kochia (Kochia scoparia) [7])	Blackgrass plant response rating (0 to 100 scale) [8]	Blackgrass plant response rating [8]	Barnyardgrass plant response rating (0 to 100 scale) [9]	Barnyardgrass plant response rating [9]	other results
C#CCn1nc(C)c(O)c(C(=NOC)c2cccc(Cl)c2)c1=O (mixture of isomers) [Compound 3]	10	10	0	20	0	10	0	10	10	10	30	70	20	0	50	10	50	10	40	0	Pigweed plant response rating (0 to 100 scale) [10]: 50; Pigweed plant response rating [10]: 20; Wheat plant response rating (0 to 100 scale) [11]: 10; Wheat plant response rating [11]: 0; Galium plant response rating (0 to 100 scale) [12]: 70; Galium plant response rating [12]: 30; Foxtail, Giant plant response rating (0 to 100 scale) [13]: 40; Foxtail, Giant plant response rating [13]: 10; Ragweed plant response rating (0 to 100 scale) [14]: 60; Ragweed plant response rating [14]: 20; Ryegrass, Italian plant response rating (0 to 100 scale) [15]: 80; Ryegrass, Italian plant response rating [15]: 20; Plant response rating, Barnyardgrass (0 to 100 scale, 0 is no effect, 100 is complete control) [16]: 0; Plant response rating, Sedge, Umbrella (0 to 100 scale, 0 is no effect, 100 is complete control) [17]: 0; Plant response rating, Rice (0 to 100 scale, 0 is no effect, 100 is complete control) (rice (Oryza sativa)): 0; Plant response rating, Ducksalad (0 to 100 scale, 0 is no effect, 100 is complete control) [18]: 0
CON=C(c1cccc(Cl)c1)c1c(O)c(C)nn(CC2CC2)c1=O (mixture of isomers) [Compound 4]	0	0	20	70	0	0	0	50	0	0	0	30	0	0	0	0	40	0	0	0	Pigweed plant response rating (0 to 100 scale) [10]: 0; Pigweed plant response rating [10]: 0; Wheat plant response rating (0 to 100 scale) [11]: 0; Wheat plant response rating [11]: 0; Galium plant response rating (0 to 100 scale) [12]: 0; Galium plant response rating [12]: 0; Foxtail, Giant plant response rating (0 to 100 scale) [13]: 0; Foxtail, Giant plant response rating [13]: 0; Ragweed plant response rating (0 to 100 scale) [14]: 0; Ragweed plant response rating [14]: 0; Ryegrass, Italian plant response rating (0 to 100 scale) [15]: 0; Ryegrass, Italian plant response rating [15]: 0; Plant response rating, Barnyardgrass (0 to 100 scale, 0 is no effect, 100 is complete control) [16]: 0; Plant response rating, Sedge, Umbrella (0 to 100 scale, 0 is no effect, 100 is complete control) [17]: 0; Plant response rating, Rice (0 to 100 scale, 0 is no effect, 100 is complete control) (rice (Oryza sativa)): 0; Plant response rating, Ducksalad (0 to 100 scale, 0 is no effect, 100 is complete control) [18]: 0
